# From patent US20080214662A1, “METHODS FOR THE TREATMENT OF DEMENTIA BASED ON APO E GENOTYPE” (priority 2002, published 2008)
# Values joined by “and” are separate entries in the source; they are usually repeats but may differ in a detail not shown here. Equal values may be shown once.
# System: outpatients with probable AD
# Assay: Pharmacogenetic analysis of ADAS-Cog response to rivastigmine by ApoE ε4 carrier status in Phase III trials ENA 713 B351 and ENA 713 B352
# Format: in vivo, human
# Design: key to mean of change from baseline in ADAS-Cog score at end of study: change from baseline in ADAS-Cog score points
# Settings: for response to treatment (non-deterioration, Table 7), share of individuals: rivastigmine greater than or equal to 6 mg; for 4-point improvement in the ADAS-Cog score (number of individuals) / Deterioration in the ADAS-Cog score (number of individuals) / No 4-point improvement in the ADAS-Cog score (number of individuals) / Non-deterioration in the ADAS-Cog score (number of individuals): 26 weeks
# Description: A pharmacogenetic study of the effect of a patients ApoE ε4 genotype on the response to the ChEI, rivastigmine was conducted. Rivastigmine tartrate is an inhibitor of both AChE and BuChE and is commercially available under the name EXELON™ from Novartis Pharmaceuticals Corporation, East Hanover, N.J. Individuals In the trial were divided into treatment groups depending on the dose they received, namely <6 mg/day of rivastigmine, 6-12 mg/day of rivastigmine and placebo. Each treatment group was analyzed separately. Individuals in each treatment group were then classified as ApoE ε4 carriers or non-carriers based on the genotype data. A significant association (P=0.0071) between the ApoE ε4 carriers and the greater than 4 point improvement was found in the 6-12 mg group. In contrast, the association of the ApoE ε4 allele with non-deterioration in the study was not significant (P=0.1172) in the same group.
# The Phase III clinical trials ENA 713 B352 and ENA 713 B351 are multicenter, double-blind, placebo-controlled, parallel-group study to examine the effect of rivastigmine in outpatients with probable AD. Both trials are conducted over a period of 26 weeks. ENA 713 B351 has 4 treatment arms with comprising of rivastigmine 3 mg/day, rivastigmine 6 mg/day, rivastigmine 9 mg/day or placebo. The initial dose-titration phase (Weeks 1-12) was followed by a fixed-dose phase (Week 13-26), for a total randomized double-blind treatment period of 26 weeks. ENA 713 B352 has 3 treatment arms with comprising of rivastigmine 1-4 mg/day, rivastigmine 6-12 mg/day, and placebo. The initial dose-titration phase (Weeks 1-7) was followed by a fixed-dose phase (Week 8-26), for a total randomized, double-blind treatment period of 26 weeks. The blood samples were handled by the Roskamp Institute, University of South Florida.
# Individuals in the trial were classified as being responders if the final change from their baseline ADAS-COG scores is less than or equal to 4-points. A Fisher's Exact test was used to find an association between ApoE genotype and response.
# Individuals in the trial were classified as being responders if the final change from their baseline ADAS-Cog scores is less than or equal to 0 points. A Fisher's Exact test was used to find an association between ApoE genotype and response.
# Treatment differences in the ApoE ε4 and non-ApoE ε4 carriers were also analyzed. Treatment differences being measured as the 4-point decrease and the non-deterioration classes. An exact Cochran-Armitage test for trend is used to determine if the numbers of responders increase with dose of rivastigmine among each genotype group.
# The trial population was divided into three groups based on the treatment they received. The three groups are placebo, rivastigmine <6 mg/day and rivastigmine ≧6 mg/day. All analyses were conducted within each group separately. The genotype data for the ApoE were re-coded for the presence or absence of the […]. The re-coded genotype data were used as the categorical variable.
# A non-parametric analysis of variance (ANOVA) model was used for the analysis. Change from baseline in the ADAS-Cog score is used as the dependent variable.
# [1] = rivastigmine <6 mg/day, No ε4 allele
# [2] = rivastigmine <6 mg/day, ε4 allele carriers
# [3] = rivastigmine ≧6 mg/day, No ε4 allele
# [4] = rivastigmine ≧6 mg/day, No ε4 allele, listed as Rivastigmine
# [5] = rivastigmine ≧6 mg/day, ε4 allele carriers
smiles,measurement,setting,value
CCN(C)C(=O)Oc1cccc([C@H](C)N(C)C)c1 [rivastigmine],"response to treatment (non-deterioration, Table 7), share of individuals",ApoE ε4 carriers,65%
same,mean of change from baseline in ADAS-Cog score at end of study,"Rivastigmine <6 mg/day, No ε4 allele",1.444
same,mean of change from baseline in ADAS-Cog score at end of study,"Rivastigmine <6 mg/day, ε4 allele",1.293
same,mean of change from baseline in ADAS-Cog score at end of study,"Rivastigmine ≧6 mg/day, No ε4 allele, listed as Rivastigmine",0.39
same,mean of change from baseline in ADAS-Cog score at end of study,"Rivastigmine ≧6 mg/day, ε4 allele",−1.74
same,"response to treatment (non-deterioration, Table 7), share of individuals",non-ApoE ε4 carriers,48.7%
same,4-point improvement in the ADAS-Cog score (number of individuals),[1],4
same,Deterioration in the ADAS-Cog score (number of individuals),[1],24
same,No 4-point improvement in the ADAS-Cog score (number of individuals),[1],32
same,Non-deterioration in the ADAS-Cog score (number of individuals),[1],12
same,No 4-point improvement in the ADAS-Cog score (number of individuals),"rivastigmine <6 mg/day, No ε4 allele, listed as Rivastigmine",37
same,4-point improvement in the ADAS-Cog score (number of individuals),[2],12
same,Deterioration in the ADAS-Cog score (number of individuals),[2],63
same,No 4-point improvement in the ADAS-Cog score (number of individuals),[2],83
same,Non-deterioration in the ADAS-Cog score (number of individuals),[2],32 and 12
same,4-point improvement in the ADAS-Cog score (number of individuals),[3],4
same,Deterioration in the ADAS-Cog score (number of individuals),[3],21
same,No 4-point improvement in the ADAS-Cog score (number of individuals),[3],37
same,Non-deterioration in the ADAS-Cog score (number of individuals),[3],20
same,4-point improvement in the ADAS-Cog score (number of individuals),[4],26
same,No 4-point improvement in the ADAS-Cog score (number of individuals),[4],54
same,4-point improvement in the ADAS-Cog score (number of individuals),[5],26
same,Deterioration in the ADAS-Cog score (number of individuals),[5],28
same,No 4-point improvement in the ADAS-Cog score (number of individuals),[5],54
same,Non-deterioration in the ADAS-Cog score (number of individuals),[5],52
